Measurements published in patent US12370263B2, “Cyclic dinucleotide derivative based antibody-drug conjugates” (DAIICHI SANKYO COMPANY, LIMITED, priority 2018, dated 2025).
Read-outs that look alike come from different tables or passages of the source.

Assays:
[1] = target: T1, HisAviTEV-hSTING (139-342) human REF-mutated protein (Homo sapiens, UniProt Q86WV6); experiment: Protein thermal shift assay, STING C-terminal binding domain protein; conditions: test compound final concentration 0.5 mM
T1 construct: made in house; host or cells: E. coli Rosetta 2 (DE3), co-expressed with BirA (1-321)
T1 sequence (Q86WV6 with tags, fused parts or gaps, change not shown): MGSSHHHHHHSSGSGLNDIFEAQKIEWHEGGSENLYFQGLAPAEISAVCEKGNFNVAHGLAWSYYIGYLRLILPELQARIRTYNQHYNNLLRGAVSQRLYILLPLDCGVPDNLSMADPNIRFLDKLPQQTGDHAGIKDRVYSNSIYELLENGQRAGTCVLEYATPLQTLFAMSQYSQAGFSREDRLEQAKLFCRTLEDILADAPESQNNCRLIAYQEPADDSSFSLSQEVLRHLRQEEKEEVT

[2] = target: T2, HisAviTEV-hSTING (139-342) human AQ-mutated protein (Homo sapiens, UniProt Q86WV6, G230A/H232R/R293Q); experiment: as above; conditions: test compound final concentration 0.5 mM
T2 construct: made in house; host or cells: E. coli Rosetta 2 (DE3), co-expressed with BirA (1-321)
T2 sequence (Q86WV6 with tags, fused parts or gaps G230A/H232R/R293Q): as the sequence (Q86WV6 with tags, fused parts or gaps, change not shown) above, with G131A, H133R, R194Q counted along it

Human STING = Human STING (Homo sapiens, UniProt Q86WV6, G230A/H232R/R293Q/R71H); experiment: Reporter gene assay, human STING agonist activity, THP1-Dual cells (HAQ-mutated), IRF pathway; conditions: 24 hours, 100% = maximum count with ML-RR-CDA·2Na+
Sequence of Human STING (Q86WV6 whole entry R71H/G230A/H232R/R293Q, the tested form may be a part): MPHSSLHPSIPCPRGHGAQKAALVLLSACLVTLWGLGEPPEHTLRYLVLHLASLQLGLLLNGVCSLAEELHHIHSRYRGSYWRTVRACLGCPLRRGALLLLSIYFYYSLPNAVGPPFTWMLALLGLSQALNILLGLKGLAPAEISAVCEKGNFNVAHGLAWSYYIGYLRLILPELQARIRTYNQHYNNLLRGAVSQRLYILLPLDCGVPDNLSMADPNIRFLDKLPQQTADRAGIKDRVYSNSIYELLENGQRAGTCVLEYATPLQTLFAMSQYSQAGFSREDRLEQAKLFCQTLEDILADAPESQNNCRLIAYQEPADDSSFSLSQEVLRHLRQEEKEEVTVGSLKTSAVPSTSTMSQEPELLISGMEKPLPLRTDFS

[3] = target: T3, His-Avi-TEV-mSTING (138-341) mouse wild-type protein (Mus musculus, UniProt Q3TBT3); experiment: Protein thermal shift assay, STING C-terminal binding domain protein; conditions: test compound final concentration 0.5 mM
T3 construct: made in house; host or cells: E. coli Rosetta 2 (DE3), co-expressed with BirA (1-321)
T3 sequence (Q3TBT3 with tags, fused parts or gaps limits assumed): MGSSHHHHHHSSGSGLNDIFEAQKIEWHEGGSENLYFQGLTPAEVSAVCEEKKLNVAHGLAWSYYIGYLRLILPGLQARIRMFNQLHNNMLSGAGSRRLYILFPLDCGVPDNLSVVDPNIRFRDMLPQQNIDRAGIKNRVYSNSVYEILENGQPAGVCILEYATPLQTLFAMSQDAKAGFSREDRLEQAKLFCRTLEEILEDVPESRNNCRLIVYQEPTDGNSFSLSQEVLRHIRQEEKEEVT
Procedure: Each of these expression strains was added to a TB medium containing 100 μg/mL ampicillin, 50 μg/mL streptomycin, and 30 μg/mL kanamycin, cultured at 37° C., then exposed to 100 μM IPTG for inducible expression, and further cultured at 16° C.
The culture solution was centrifuged, and the resulting bacterial cells were suspended in 50 mM HEPES pH 8.0, 500 mM NaCl, 20 mM imidazole, 1 mM DTT, 5% (w/v) glycerol, Complete EDTA free, and then subjected to freeze-thawing. After addition of Lysozyme and DNase I, proteins were extracted by ultrasonic disintegration, and centrifugation was performed and the resulting supernatant was collected. The supernatant obtained was purified by using an AKTA express chromatography system (GE Healthcare, IL, US) with a HisTrap FF column (GE Healthcare), and eluted with buffer (20 mM HEPES pH 7.5, 120 mM NaCl, 20% Glycerol, 0.8 mM DTT) through a Superdex 200 16/60 column (GE Healthcare). […] The protein concentrations were measured by using a NanoDrop2000 (Thermo Fisher Scientific, MA, US), and the proteins were cryopreserved at −80° C. until use.
The binding ability of each compound to the STING C-terminal binding domain proteins was evaluated by protein thermal shift assay, which uses the elevation of thermal denaturation temperature of protein as an index.
Specifically, 3 μL of a test compound (final concentration: 0.5 mM), 3 μL of SYPRO Orange Protein Gel Stain (Thermo Fisher Scientific) (final concentration: 20-fold), and 6 μL of a STING protein were mixed with use of assay buffer (20 mM Tris-HCl pH 7.5, 120 mM NaCl) in a 384-well real-time PCR plate, and mixed together with a plate shaker. With a real-time PCR system (Thermo Fisher Scientific), the temperature was increased from 25° C. to 95° C. at a rate of 0.03° C./sec, and the thermal denaturation temperature of the protein was measured by using fluorescence emitted from SYPRO Orange as an index. From the measurement acquired, Tm (the midpoint of the unfolding transition) (° C.) was determined as a temperature at which the increase rate of fluorescence intensity was maximized by using the analysis software Protein Thermal Shift software (Thermo Fisher Scientific). The Tm value for a well with no compound was subtracted from the Tm value for each test compound to calculate the Tm shift caused by the compound as ΔTm (° C.).

[4] = target: T4, HisAviTEV-hSTING (139-342) human wild-type protein (Homo sapiens, UniProt Q86WV6, H232R); experiment: as above; conditions: test compound final concentration 0.5 mM
T4 construct: made in house; host or cells: E. coli Rosetta 2 (DE3), co-expressed with BirA (1-321)
T4 sequence (Q86WV6 with tags, fused parts or gaps H232R): as the sequence (Q86WV6 with tags, fused parts or gaps, change not shown) above, with H133R counted along it

[5] = THP1-Dual cells IRF EC50, THP1-Dual cells (HAQ-mutated)

SMILES | ΔTm at 500 µM [1] [°C] | ΔTm at 500 µM [2] [°C] | EC50 (Human STING; [5]) [nM] | ΔTm at 500 µM [3] [°C] | ΔTm at 500 µM [4] [°C] | ΔTm Hu-REF [1] [°C] | ΔTm Hu-AQ [2] [°C] | ΔTm Ms-WT [3] [°C] | ΔTm Hu-WT [4] [°C] | EC50 (Human STING; read-out: THP1-Dual cells IRF EC50, THP1-Dual cells (HAQ-mutated)) [nM]
Nc1ncnc2c1ncn2[C@@H]1O[C@@H]2COP(=O)(S)O[C@H]3[C@@H](O)[C@H](n4cc5c6c(ncnc64)NCCC5)O[C@@H]3COP(=O)(S)O[C@@H]1[C@@H]2O (single isomer, unassigned) [1a] | 3.4 | 12 | 5900 | 14.3 | 8.4 | – | – | – | – | –
Nc1nc2c(ncn2[C@@H]2O[C@@H]3COP(=O)(S)O[C@H]4[C@@H](O)[C@H](n5cc6c7c(ncnc75)NCCC6)O[C@@H]4COP(=O)(S)O[C@@H]2[C@@H]3O)c(=O)[nH]1 (single isomer, unassigned) [4b] | – | – | 1500 | – | – | 3.5 | 13.1 | 14.9 | 9.8 | –
O=C(CO)NCCn1cnc2c(ncn2[C@@H]2O[C@@H]3COP(=O)(S)O[C@H]4[C@@H](O)[C@H](n5cc6c7c(ncnc75)NCCC6)O[C@@H]4COP(=O)(S)O[C@@H]2[C@@H]3O)c1=O (single isomer, unassigned) [7a] | 3.9 | 9.7 | 3500 | 11.5 | 8 | – | – | – | – | –
NCCNc1nc(N)c2ncn([C@@H]3O[C@@H]4COP(=O)(S)O[C@H]5[C@@H](O)[C@H](n6cc7c8c(ncnc86)NCCC7)O[C@@H]5COP(=O)(S)O[C@@H]3[C@@H]4O)c2n1 (single isomer, unassigned) [8a] | 2.8 | 10.8 | 3100 | 11.5 | 7.6 | – | – | – | – | –
Nc1nc(CO)nc2c1ncn2[C@@H]1O[C@@H]2COP(=O)(S)O[C@H]3[C@@H](O)[C@H](n4cc5c6c(ncnc64)NCCC5)O[C@@H]3COP(=O)(S)O[C@@H]1[C@@H]2O (single isomer, unassigned) [12a] | 3 | 9.6 | – | 11.9 | 8 | – | – | – | – | –
O=P1(S)OC[C@H]2O[C@@H](n3cc4c5c(ncnc53)NCCC4)[C@H](O)[C@@H]2OP(=O)(S)OC[C@H]2O[C@@H](n3cnc4c(CO)ncnc43)[C@H](O1)[C@@H]2O (single isomer, unassigned) [17b] | – | – | 1000 | – | – | 2.2 | 10.4 | 12.6 | 7.4 | –
Nc1ncnc2c1ncn2[C@@H]1O[C@@H]2COP(=O)(S)O[C@H]3[C@@H](O)[C@H](n4cc5c6c(ncnc64)OCCC5)O[C@@H]3COP(=O)(S)O[C@@H]1[C@@H]2O (single isomer, unassigned) [20a] | 3.7 | 9.7 | – | 12.4 | 7.5 | – | – | – | – | –
Nc1ncnc2c1ncn2[C@@H]1O[C@@H]2COP(=O)(S)O[C@H]3[C@@H](O)[C@H](n4cc5c6c(ncnc64)SCCC5)O[C@@H]3COP(=O)(S)O[C@@H]1[C@@H]2O (single isomer, unassigned) [23a] | 4.2 | 12.2 | 2600 | 15.6 | 9.7 | – | – | – | – | –
O=c1[nH]cnc2c1ncn2[C@@H]1O[C@@H]2COP(=O)(S)O[C@H]3[C@@H](O)[C@H](n4cc5c6c(ncnc64)NCCC5)O[C@@H]3COP(=O)(S)O[C@@H]1[C@@H]2O (single isomer, unassigned) [25a] | 6.2 | 15 | 1300 | 16 | 11.4 | – | – | – | – | –
O=c1c2ncn([C@@H]3O[C@@H]4COP(=O)(S)O[C@H]5[C@@H](O)[C@H](n6cc7c8c(ncnc86)NCCC7)O[C@@H]5COP(=O)(S)O[C@@H]3[C@@H]4O)c2ncn1CCCO (single isomer, unassigned) [26b] | 3.9 | 11.5 | 1200 | 14.1 | 9.1 | – | – | – | – | –
NCCn1cnc2c(ncn2[C@@H]2O[C@@H]3COP(=O)(S)O[C@H]4[C@@H](F)[C@H](n5cc6c7c(ncnc75)NCCC6)O[C@@H]4COP(=O)(S)O[C@@H]2[C@@H]3O)c1=O (single isomer, unassigned) [35a] | 6.6 | 13.1 | 2000 | 13.5 | 11 | – | – | – | – | –
NCCn1cnc2c(ncn2[C@@H]2O[C@@H]3COP(=O)(S)O[C@H]4[C@@H](F)[C@H](n5cc6c7c(ncnc75)NCCC6)O[C@@H]4COP(=O)(S)O[C@@H]2[C@@H]3O)c1=O (single isomer, unassigned) [35b] | – | – | 3400 | – | – | 5.8 | 12.6 | 14.2 | 10.3 | –
O=C(CO)NCCn1cnc2c(ncn2[C@@H]2O[C@@H]3COP(=O)(S)O[C@H]4[C@@H](F)[C@H](n5cc6c7c(ncnc75)NCCC6)O[C@@H]4COP(=O)(S)O[C@@H]2[C@@H]3O)c1=O (single isomer, unassigned) [36a] | 5.8 | 13.3 | 2000 | 15.4 | 10.8 | – | – | – | – | –

Second part, the compound after the results:

ΔTm at 500 µM [1] [°C] | ΔTm at 500 µM [2] [°C] | EC50 (Human STING; [5]) [nM] | ΔTm at 500 µM [3] [°C] | ΔTm at 500 µM [4] [°C] | ΔTm Hu-REF [1] [°C] | ΔTm Hu-AQ [2] [°C] | ΔTm Ms-WT [3] [°C] | ΔTm Hu-WT [4] [°C] | EC50 (Human STING; read-out: THP1-Dual cells IRF EC50, THP1-Dual cells (HAQ-mutated)) [nM] | SMILES
5.2 | 17 | 2100 | 17.5 | 11.5 | – | – | – | – | – | Nc1nc2c(ncn2[C@@H]2O[C@@H]3COP(=O)(S)O[C@H]4[C@@H](O)[C@H](n5cc6c7c(ncnc75)NCCC6)O[C@@H]4COP(=O)(S)O[C@@H]2[C@@H]3O)c(=O)[nH]1 (single isomer, unassigned) [4a]
– | – | 6100 | – | – | 2.8 | 9.5 | 13.2 | 7.2 | – | O=C(CO)NCCn1cnc2c(ncn2[C@@H]2O[C@@H]3COP(=O)(S)O[C@H]4[C@@H](O)[C@H](n5cc6c7c(ncnc75)NCCC6)O[C@@H]4COP(=O)(S)O[C@@H]2[C@@H]3O)c1=O (single isomer, unassigned) [7b]
2.7 | 10.7 | 4400 | 12.6 | 7.3 | – | – | – | – | – | O=P1(S)OC[C@H]2O[C@@H](n3cc4c5c(ncnc53)NCCC4)[C@H](O)[C@@H]2OP(=O)(S)OC[C@H]2O[C@@H](n3cnc4c(CO)ncnc43)[C@H](O1)[C@@H]2O (single isomer, unassigned) [17a]
– | – | 900 | – | – | 4.6 | 13.1 | 15.8 | 10.6 | – | O=c1[nH]cnc2c1ncn2[C@@H]1O[C@@H]2COP(=O)(S)O[C@H]3[C@@H](O)[C@H](n4cc5c6c(ncnc64)NCCC5)O[C@@H]3COP(=O)(S)O[C@@H]1[C@@H]2O (single isomer, unassigned) [25b]
8.8 | 18.9 | 200 | 20.3 | 14.7 | – | – | – | – | – | O=c1c2ncn([C@@H]3O[C@@H]4COP(=O)(S)O[C@H]5[C@@H](F)[C@H](n6cc7c8c(ncnc86)NCCC7)O[C@@H]5COP(=O)(S)O[C@@H]3[C@@H]4O)c2ncn1CCO (single isomer, unassigned) [34a]
– | – | – | – | – | 5.5 | 11.8 | 19.3 | 10.1 | 2000 | O=C(CO)NCCn1cnc2c(ncn2[C@@H]2O[C@@H]3COP(=O)(S)O[C@H]4[C@@H](F)[C@H](n5cc6c7c(ncnc75)NCCC6)O[C@@H]4COP(=O)(S)O[C@@H]2[C@@H]3O)c1=O (single isomer, unassigned) [36b]
5.2 | 13.6 | 980 | 15.3 | 11.2 | – | – | – | – | – | NCCNc1nc(N)c2ncn([C@@H]3O[C@@H]4COP(=O)(S)O[C@H]5[C@@H](F)[C@H](n6cc7c8c(ncnc86)NCCC7)O[C@@H]5COP(=O)(S)O[C@@H]3[C@@H]4O)c2n1 (single isomer, unassigned) [37a]
